Laboratory results as given in patent US20120029187A1, “HALOALKYLSULFONANILIDE DERIVATIVE” (Nissan Chemical Industries, Ltd., priority 2009, published 2012).

Experiments:
Type in all cases: in vivo
barnyardgrass [1] = experiment: Test Example 1: herbicidal effects in preemergence treatment under submerged conditions; settings: dose 2.52 g/a
Method in brief: (§1)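 Alluvial soil flooded to 4 cm depth; barnyardgrass, bulrush and ducksalad sown and 2.5-leaf rice seedlings transplanted. Same day, water-diluted emulsifiable concentrates applied to the water surface at set doses (g/a). Kept at 25–30 °C in greenhouse; effects scored 0–5 by mortality after three weeks.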

bulrush [2] = experiment: as above; settings: dose 2.52 g/a
Method in brief: as §1

ducksalad [3] = experiment: as above; settings: dose 2.52 g/a
Method in brief: as §1

transplanted rice = experiment: Test Example 1: preemergence treatment under submerged conditions, effect on crop; settings: dose 2.52 g/a
Method in brief: as §1

barnyardgrass [4] = experiment: Test Example 2: herbicidal effects during the vegetation period under submerged conditions; settings: treatment during the vegetation period under submerged conditions; dose 2.52 g/a
Method in brief: (§2)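 Barnyardgrass, bulrush and ducksalad were co-sown in alluvial soil flooded to 4 cm and grown in a greenhouse at 25 to 30° C. At the 1- or 2-leaf stage, water-diluted emulsifiable concentrates went onto the water surface at set doses (g/a). Herbicidal effect was scored three weeks later on a graded scale.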

bulrush [5] = experiment: as above; settings: treatment during the vegetation period under submerged conditions; dose 2.52 g/a
Method in brief: as §2

ducksalad [6] = experiment: as above; settings: treatment during the vegetation period under submerged conditions; dose 2.52 g/a
Method in brief: as §2

Italian ryegrass [7] = experiment: Test Example 3: herbicidal effects in soil treatment; settings: dose 3.2 g/a
Method in brief: (§3)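 Seeds were sown in sterilized diluvial soil and covered with about 1.5 cm of soil. Compounds, formulated as emulsifiable concentrates and diluted with water, were sprayed evenly over the soil surface at set doses in g/a. Herbicidal effect was scored on a rating scale three weeks later.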

barnyardgrass [8] = experiment: as above; settings: dose 3.2 g/a
Method in brief: as §3

common chickweed [9] = experiment: as above; settings: dose 3.2 g/a
Method in brief: as §3

common lambsquater [10] = experiment: as above; settings: dose 3.2 g/a
Method in brief: as §3

common ragweed [11] = experiment: as above; settings: dose 3.2 g/a
Method in brief: as §3

giant foxtail [12] = experiment: as above; settings: dose 3.2 g/a
Method in brief: as §3

large crabgrass [13] = experiment: as above; settings: dose 3.2 g/a
Method in brief: as §3

posumbu knotweed [14] = experiment: as above; settings: dose 3.2 g/a
Method in brief: as §3

redroot pigweed [15] = experiment: as above; settings: dose 3.2 g/a
Method in brief: as §3

velvetleaf [16] = experiment: as above; settings: dose 3.2 g/a
Method in brief: as §3

water foxtail [17] = experiment: as above; settings: dose 3.2 g/a
Method in brief: as §3

Italian ryegrass [18] = experiment: Test Example 4: herbicidal effect in foliage treatment; settings: dose 3.2 g/a, three weeks after application
Method in brief: (§4)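 Foliar spray, post-emergence: 14-day-old greenhouse plants (25–30° C, diluvial soil) treated with water-diluted EC at set g/a doses; visual herbicidal score at 3 wk post-application.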

barnyardgrass [19] = experiment: as above; settings: dose 3.2 g/a, three weeks after application
Method in brief: as §4

beadstraw = experiment: as above; settings: dose 3.2 g/a, three weeks after application
Method in brief: as §4

common chickweed [20] = experiment: as above; settings: dose 3.2 g/a, three weeks after application
Method in brief: as §4

common lambsquater [21] = experiment: as above; settings: dose 3.2 g/a, three weeks after application
Method in brief: as §4

common ragweed [22] = experiment: as above; settings: dose 3.2 g/a, three weeks after application
Method in brief: as §4

giant foxtail [23] = experiment: as above; settings: dose 3.2 g/a, three weeks after application
Method in brief: as §4

large crabgrass [24] = experiment: as above; settings: dose 3.2 g/a, three weeks after application
Method in brief: as §4

posumbu knotweed [25] = experiment: as above; settings: dose 3.2 g/a, three weeks after application
Method in brief: as §4

redroot pigweed [26] = experiment: as above; settings: dose 3.2 g/a, three weeks after application
Method in brief: as §4

velvetleaf [27] = experiment: as above; settings: dose 3.2 g/a, three weeks after application
Method in brief: as §4

water foxtail [28] = experiment: as above; settings: dose 3.2 g/a, three weeks after application
Method in brief: as §4

Compound: CCOC(=O)N(c1ccccc1CN1COC(C)(C(F)(F)F)CC1=O)S(=O)(=O)C(F)(F)F (stereo not drawn) [II-49]
- A: barnyardgrass, herbicidal effect (evaluation scale 0-5) (barnyardgrass [1]): 5 (mortality of 90% or above (nearly complete death))
- B: bulrush, herbicidal effect (evaluation scale 0-5) (bulrush [2]): 5 (mortality of 90% or above (nearly complete death))
- C: ducksalad, herbicidal effect (evaluation scale 0-5) (ducksalad [3]): 5 (mortality of 90% or above (nearly complete death))
- a: transplanted rice, effect on crop (evaluation scale 0-5) (transplanted rice): 0 (mortality of less than 5% (almost ineffective))
- A: barnyardgrass, herbicidal effect (evaluation scale 0-5) (barnyardgrass [4]): 5 (mortality of 90% or above (nearly complete death))
- B: bulrush, herbicidal effect (evaluation scale 0-5) (bulrush [5]): 5 (mortality of 90% or above (nearly complete death))
- C: ducksalad, herbicidal effect (evaluation scale 0-5) (ducksalad [6]): 5 (mortality of 90% or above (nearly complete death))
- H: Italian ryegrass, herbicidal effect (evaluation scale 0-5) (Italian ryegrass [7]): 3 (mortality of at least 40% and less than 70%)
- A: barnyardgrass, herbicidal effect (evaluation scale 0-5) (barnyardgrass [8]): 3 (mortality of at least 40% and less than 70%)
- N: common chickweed, herbicidal effect (evaluation scale 0-5) (common chickweed [9]): 4 (mortality of at least 70% and less than 90%)
- L: common lambsquater, herbicidal effect (evaluation scale 0-5) (common lambsquater [10]): 2 (mortality of at least 20% and less than 40%)
- J: common ragweed, herbicidal effect (evaluation scale 0-5) (common ragweed [11]): 4 (mortality of at least 70% and less than 90%)
- E: giant foxtail, herbicidal effect (evaluation scale 0-5) (giant foxtail [12]): 3 (mortality of at least 40% and less than 70%)
- D: large crabgrass, herbicidal effect (evaluation scale 0-5) (large crabgrass [13]): 3 (mortality of at least 40% and less than 70%)
- M: posumbu knotweed, herbicidal effect (evaluation scale 0-5) (posumbu knotweed [14]): 4 (mortality of at least 70% and less than 90%)
- K: redroot pigweed, herbicidal effect (evaluation scale 0-5) (redroot pigweed [15]): 0 (mortality of less than 5% (almost ineffective))
- I: velvetleaf, herbicidal effect (evaluation scale 0-5) (velvetleaf [16]): 0 (mortality of less than 5% (almost ineffective))
- G: water foxtail, herbicidal effect (evaluation scale 0-5) (water foxtail [17]): 5 (mortality of 90% or above (nearly complete death))
- H: Italian ryegrass, herbicidal effect (Italian ryegrass [18]): 0 (mortality of less than 5% (almost ineffective))
- A: barnyardgrass, herbicidal effect (barnyardgrass [19]): 4 (mortality of at least 70% and less than 90%)
- O: beadstraw, herbicidal effect (beadstraw): 4 (mortality of at least 70% and less than 90%)
- N: common chickweed, herbicidal effect (common chickweed [20]): 3 (mortality of at least 40% and less than 70%)
- L: common lambsquater, herbicidal effect (common lambsquater [21]): 3 (mortality of at least 40% and less than 70%)
- J: common ragweed, herbicidal effect (common ragweed [22]): 3 (mortality of at least 40% and less than 70%)
- E: giant foxtail, herbicidal effect (giant foxtail [23]): 3 (mortality of at least 40% and less than 70%)
- D: large crabgrass, herbicidal effect (large crabgrass [24]): 0 (mortality of less than 5% (almost ineffective))
- M: posumbu knotweed, herbicidal effect (posumbu knotweed [25]): 3 (mortality of at least 40% and less than 70%)
- K: redroot pigweed, herbicidal effect (redroot pigweed [26]): 0 (mortality of less than 5% (almost ineffective))
- I: velvetleaf, herbicidal effect (velvetleaf [27]): 0 (mortality of less than 5% (almost ineffective))
- G: water foxtail, herbicidal effect (water foxtail [28]): 3 (mortality of at least 40% and less than 70%)

Compound: CCC1(C)CC(=O)N(Cc2ccccc2N(C(=O)OCC(C)C)S(=O)(=O)C(F)(F)F)CO1 (stereo not drawn) [II-43]
- A: barnyardgrass, herbicidal effect (evaluation scale 0-5) (barnyardgrass [1]): 5 (mortality of 90% or above (nearly complete death))
- B: bulrush, herbicidal effect (evaluation scale 0-5) (bulrush [2]): 5 (mortality of 90% or above (nearly complete death))
- C: ducksalad, herbicidal effect (evaluation scale 0-5) (ducksalad [3]): 5 (mortality of 90% or above (nearly complete death))
- a: transplanted rice, effect on crop (evaluation scale 0-5) (transplanted rice): 0 (mortality of less than 5% (almost ineffective))
- A: barnyardgrass, herbicidal effect (evaluation scale 0-5) (barnyardgrass [4]): 5 (mortality of 90% or above (nearly complete death))
- B: bulrush, herbicidal effect (evaluation scale 0-5) (bulrush [5]): 5 (mortality of 90% or above (nearly complete death))
- C: ducksalad, herbicidal effect (evaluation scale 0-5) (ducksalad [6]): 5 (mortality of 90% or above (nearly complete death))
- H: Italian ryegrass, herbicidal effect (evaluation scale 0-5) (Italian ryegrass [7]): 5 (mortality of 90% or above (nearly complete death))
- A: barnyardgrass, herbicidal effect (evaluation scale 0-5) (barnyardgrass [8]): 4 (mortality of at least 70% and less than 90%)
- N: common chickweed, herbicidal effect (evaluation scale 0-5) (common chickweed [9]): 5 (mortality of 90% or above (nearly complete death))
- L: common lambsquater, herbicidal effect (evaluation scale 0-5) (common lambsquater [10]): 5 (mortality of 90% or above (nearly complete death))
- J: common ragweed, herbicidal effect (evaluation scale 0-5) (common ragweed [11]): 3 (mortality of at least 40% and less than 70%)
- E: giant foxtail, herbicidal effect (evaluation scale 0-5) (giant foxtail [12]): 2 (mortality of at least 20% and less than 40%)
- D: large crabgrass, herbicidal effect (evaluation scale 0-5) (large crabgrass [13]): 3 (mortality of at least 40% and less than 70%)
- M: posumbu knotweed, herbicidal effect (evaluation scale 0-5) (posumbu knotweed [14]): 4 (mortality of at least 70% and less than 90%)
- K: redroot pigweed, herbicidal effect (evaluation scale 0-5) (redroot pigweed [15]): 2 (mortality of at least 20% and less than 40%)
- I: velvetleaf, herbicidal effect (evaluation scale 0-5) (velvetleaf [16]): 5 (mortality of 90% or above (nearly complete death))
- G: water foxtail, herbicidal effect (evaluation scale 0-5) (water foxtail [17]): 5 (mortality of 90% or above (nearly complete death))
- H: Italian ryegrass, herbicidal effect (Italian ryegrass [18]): 4 (mortality of at least 70% and less than 90%)
- A: barnyardgrass, herbicidal effect (barnyardgrass [19]): 5 (mortality of 90% or above (nearly complete death))
- O: beadstraw, herbicidal effect (beadstraw): 4 (mortality of at least 70% and less than 90%)
- N: common chickweed, herbicidal effect (common chickweed [20]): 3 (mortality of at least 40% and less than 70%)
- L: common lambsquater, herbicidal effect (common lambsquater [21]): 2 (mortality of at least 20% and less than 40%)
- J: common ragweed, herbicidal effect (common ragweed [22]): 3 (mortality of at least 40% and less than 70%)
- E: giant foxtail, herbicidal effect (giant foxtail [23]): 4 (mortality of at least 70% and less than 90%)
- D: large crabgrass, herbicidal effect (large crabgrass [24]): 1 (mortality of at least 5% and less than 20%)
- M: posumbu knotweed, herbicidal effect (posumbu knotweed [25]): 0 (mortality of less than 5% (almost ineffective))
- K: redroot pigweed, herbicidal effect (redroot pigweed [26]): 0 (mortality of less than 5% (almost ineffective))
- I: velvetleaf, herbicidal effect (velvetleaf [27]): 5 (mortality of 90% or above (nearly complete death))
- G: water foxtail, herbicidal effect (water foxtail [28]): 5 (mortality of 90% or above (nearly complete death))
